Assay [1] concerns keratinocytes. Conditions: exogenous or endogenous; cited from earlier work.
Assay [2] concerns 25D degradation (vitamin D metabolism in keratinocytes). The assay is described as follows: Vitamin D metabolism in keratinocytes: 25D degradation. The assay is classed as cell-based, human. Conditions: for blocking of 25D degradation (in words) / 25D degradation (%): 1 uM; for blocking of 25D degradation (in words): 20 hours (Table 2); for % degradation (25D): Table 1, 10 uM compound; for 25D degradation (%): Table 2, 20 hour incubation, mean of duplicate (range); for 25D (% degradation): Table 3, 10 uM. On the procedure:
(§1) 1. Normal human keratinocytes isolated from neonatal foreskins by trypsin treatment were grown in DME medium/10% fetal calf serum in the presence of irradiated 3T3 mouse fibroblasts for establishing dividing keratinocyte colonies. Keratinocytes were grown under the above condition until their third passage.
(§2) 80% confluent keratinocytes were incubated with 0.05 uCi of ^3 H-25D or ^3 H-1,25D for two hours or 20 hours in the presence of 1-100 uM of the different compounds. Reaction was stopped by addition of methanol and the cells and medium were extracted using chloroform:methanol. The chloroform layer was separated, dried and spotted on TLC plates. […] The amount of radioactivity in each lane was quantitated using the BioScan radioactive plate reader. The amount of radioactivity remaining in the peak area of 25D and 1,25D were calculated as % of control. The % remaining was subtracted from 100 to get the % degradation of the metabolites.
(§3) The data are expressed as mean of % degradation of 25D or 1,25D. The range is also given in parenthesis.

For assay [3], the system named is 1,25D degradation (vitamin D metabolism in keratinocytes). Description: Vitamin D metabolism in keratinocytes: 1,25D degradation. The format is cell-based, human. Particulars: for blocking of 1,25D degradation (in words) / 1,25D degradation (%): 1 uM; for blocking of 1,25D degradation (in words): 20 hours (Table 2); for % degradation (1,25D): Table 1, 10 uM compound; for 1,25D degradation (%): Table 2, 20 hour incubation, mean of duplicate (range); for 1,25D (% degradation): Table 3, 10 uM. Here is the method:
as §1, §2, §3

For assay [4], the system named is keratinocytes. The assay is described as follows: Rate of DNA synthesis (3H-thymidine incorporation) in keratinocytes. The assay is classed as cell-based, human. Particulars: for DNA synthesis, % of control (100 nM 1,25D + 5 uM ceramide Formula A) / DNA synthesis, % of control (azole, only 100 nM 1,25D): Table 4; for DNA synthesis, % of control (100 nM 1,25D + 5 uM ceramide Formula A): 10 uM azole (or no azole) + 100 nM 1,25D + 5 uM ceramide Formula A, * = synergistic effect; for DNA synthesis, % of control (100 nM 1,25D + 5 uM ceramide Formula A) / DNA synthesis, % of control (azole, only 100 nM 1,25D) / DNA synthesis: mean + SD; for DNA synthesis, % of control (100 nM 1,25D + 5 uM ceramide Formula A) / DNA synthesis, % of control (azole, only 100 nM 1,25D) / DNA synthesis (% control): 1440 min; for DNA synthesis, % of control (azole, only 100 nM 1,25D): 10 uM azole, no ceramide; for DNA synthesis (% control) / DNA synthesis: Tables 4A-4F, azole 10 uM; for DNA synthesis, % of control (azole, only 100 nM 1,25D) / DNA synthesis (% control) / DNA synthesis: 100 nM 1,25D. On the procedure: as §1
2. For the experiments, third passage keratinocytes were plated into a serum-free keratinocyte growth medium (KSFM; obtained from Life Technologies, Grand Island, N.Y.) containing 0.09 mM calcium. 20,000 to 30,000 cells were plated into each well of 24 well cell culture plates and grown for 5 days, until the cells reach about 80% confluence.
3. Medium was changed to fresh medium and the various test materials were added to the medium from an ethanolic stock solution (10:00 AM). The final ethanol concentration in the cultures was kept below 0.2%. Control cultures received no tested material but were dosed with 0.2% ethanol. Each compound or combination was tested in three separate wells. By 4:00 PM, 1 uCi of ^3 H-thymidine (Amersham Corp., Sp activity 40 Ci/mmol) was added to the 1 ml medium in each well. The cells were incubated overnight and […] (10:00 AM next day) the amount of ^3 -thymidine associated with the cellular DNA of keratinocytes was assessed as described below.
4. The medium was aspirated, and the wells washed with 1 ml phosphate-buffered saline. The DNA and proteins of the cells in the plate were then precipitated by adding 1 ml of ice-cold 10% trichloroacetic acid (TCA). The plates were left on ice for 30 minutes to complete the precipitation process. TCA was then aspirated and each well was then washed four times with 5% TCA. The plates were then dried on a filter pad and the cells in the wells were dissolved in 0.5 ml of 0.1N sodium hydroxide. The sodium hydroxide was then neutralized using 0.1N hydrochloric acid and the solution (1 ml total volume) was then transferred to a scintillation vial. 50 μl samples from each vial were used for protein assay using BCA protein assay reagent obtained from Pierce Chemical Company. 8 ml of a scintillation fluid (Ecolume) was added to the rest of the solution in the vial, and the vials were counted in a scintillation counter to determine the amount of radioactivity in each vial. The DNA synthesis rate was then calculated as cpm ^3 H thymidine incorporated into total cellular DNA/microgram of cell protein for each individual well. Mean and standard deviation for each group was also calculated.
Rationale for using 1,25D is that in in vivo situation, these azoles will inhibit the endogenous degradation of the 1,25D which is obtained from the circulation. Azoles will act in keratinocytes to increase the endogenous levels of 1,25D within cells. Keratinocytes (70% confluent) were incubated with 10 uM of the different azoles in the presence of 100 nM 1,25D. One of the groups was treated with 5 uM of ceramide of Formula A in the medium. After four hours, all the wells were treated with 1 uCi ^3 H-thymidine and the rate of DNA synthesis was estimated as described in the methods.
Keratinocytes were incubated with 1 or 10 uM of Econazole in the presence of 1 uM of the different ceramide analogues and 100 nM 1,25D in the medium. Thymidine incorporation was measured with an overnight incubation as described in Example 2.
On the technique in general: Dividing cells build labelled thymidine or BrdU into new DNA.

For assay [5], the system named is histamine induced erythema. Particulars: cited from earlier work.
The next assay has as its system vitamin D metabolism. Conditions: cited from earlier work.

Structures are written as SMILES.

For `C=C1/C(=C\C=C2/CCC[C@]3(C)[C@@H]([C@H](C)CCCC(C)(C)O)CC[C@@H]23)C[C@@H](O)C[C@@H]1O` [1,25-(OH)2 D3], the “inhibition of DNA synthesis and induction of differentiation (in words)” value in the assay with keratinocytes [1] is “inhibit DNA synthesis (i.e., inhibit growth) and induce differentiation of keratinocytes”.
As for `c1ccc(-c2ccc(C(c3ccccc3)n3ccnc3)cc2)cc1` (stereo not drawn) [Bifonazole], in assay [2], the “blocking of 25D degradation (in words)” value is recorded as “very effective”, the “% degradation (25D)” value is 15% and the “25D degradation (%)” value was 41.2 (35.4-47.1) %. In addition, in assay [2] (2 hours), the “blocking of 25D metabolism (in words)” value is “ineffective” and the “25D (% degradation)” value is 89%. Moreover, in assay [2] (20 hours), the “blocking of 25D metabolism (in words)” value is “very effective” and the “25D (% degradation)” value was 15%. Besides, in assay [3], the “blocking of 1,25D degradation (in words)” value is “very effective”, the “% degradation (1,25D)” value came out at 56% and the “1,25D degradation (%)” value is given as 37.0 (25.4-48.6) %. Also, in assay [3] (2 hours), the “blocking of 1,25D metabolism (in words)” value is on record as “ineffective” and the “1,25D (% degradation)” value was 83%. Besides, in assay [3] (20 hours), the “blocking of 1,25D metabolism (in words)” value is reported as “very effective” and the “1,25D (% degradation)” value came out at 56%. Also, in the assay on keratinocytes [4], the “DNA synthesis, % of control (100 nM 1,25D + 5 uM ceramide Formula A)” value is recorded as 44.4 + 7.3 % of control and the “DNA synthesis, % of control (azole, only 100 nM 1,25D)” value is listed as 75.8 + 4.3 % of control. Besides, in the assay on keratinocytes [4] (ceramide Formula A 5 uM), the “DNA synthesis (% control)” value is on record as 75.8 % control and the DNA synthesis was 111256 + 6355 cpm 3H thymidine incorporated. In assay [5], the “direct anti-inflammatory activity (in words)” value is given as “direct anti-inflammatory activity”.
Take `C=C1CC[C@H](O)C/C1=C/C=C1\CCC[C@]2(C)[C@@H]([C@H](C)CCCC(C)(C)O)CC[C@@H]12` [25-hydroxyvitamin D (25D), 25-hydroxyvitamin D]: the “inhibition of DNA synthesis and induction of differentiation (in words)” value in the assay with keratinocytes [1] was “inhibit DNA synthesis (i.e., inhibit growth) and induce differentiation of keratinocytes”.
On to `CC(=O)N1CCN(c2ccc(OCC3COC(Cn4ccnc4)(c4ccc(Cl)cc4Cl)O3)cc2)CC1` (stereo not drawn) [Ketoconazole, ketoconazole], for which the “inhibition of vitamin D metabolism (in words)” value in the assay on vitamin D metabolism is recorded as “established inhibitor of vitamin D metabolism”.
With `Clc1ccccc1C(c1ccccc1)(c1ccccc1)n1ccnc1` [Clotrimazole], in assay [2], the “blocking of 25D degradation (in words)” value is on record as “very effective”, the “% degradation (25D)” value was found to be 5% and the “25D degradation (%)” value is reported as 47.4 (42.6-52.2) %. Also, in assay [2] (2 hours), the “blocking of 25D metabolism (in words)” value was “ineffective” and the “25D (% degradation)” value is 79%. Besides, in assay [2] (20 hours), the “blocking of 25D metabolism (in words)” value is recorded as “very effective” and the “25D (% degradation)” value worked out at 5%. Moreover, in assay [2] (results of Table 1), the “inhibition of 25D metabolism (in words)” value is given as “most potent”. Moreover, in assay [3], the “blocking of 1,25D degradation (in words)” value was “very effective”, the “% degradation (1,25D)” value is reported as 2% and the “1,25D degradation (%)” value is listed as 29.5 (21.8-37.2) %. Moreover, in assay [3] (2 hours), the “blocking of 1,25D metabolism (in words)” value is “ineffective” and the “1,25D (% degradation)” value is recorded as 77%. Also, in assay [3] (20 hours), the “blocking of 1,25D metabolism (in words)” value was “very effective” and the “1,25D (% degradation)” value amounted to 2%. Besides, the “inhibition of 1,25D metabolism (in words)” value in assay [3] (results of Table 1) is recorded as “most potent”. In the assay with keratinocytes [4], the “DNA synthesis, % of control (100 nM 1,25D + 5 uM ceramide Formula A)” value was 19.5 + 0.77 % of control; the “DNA synthesis, % of control (azole, only 100 nM 1,25D)” value is given as 35.2 + 6.5 % of control; the “DNA synthesis (% control)” value is listed as 35.2 % control. Also, in the assay on keratinocytes [4] (ceramide Formula A 5 uM), the DNA synthesis is on record as 51610 + 6735 cpm 3H thymidine incorporated.

The values are drawn from US5582832A, “Compositions for topical application to skin” (priority 1995, dated 1996).
